Reference: US20090198069A1, “METAL COMPLEX, LIGHT-EMITTING DEVICE AND DISPLAY” (NAGASAKI UNIVERSITY, NATIONAL UNIVERSITY CORPORATI, priority 2005, published 2009)

Assay: Solubility in a solvent (qualitative)
Type: physicochemical
[1] = dichloromethane (methylene chloride)

Row | Structure (SMILES) | solubility in a solvent (acetonitrile) | solubility in a solvent (benzene) | solubility in a solvent (chloroform) | solubility in a solvent [1] | solubility in a solvent (toluene) | solubility in a solvent (acetone) | solubility in a solvent (hexane) | solubility in a solvent (methanol) | solubility in a solvent (diethyl ether) | solubility in a solvent (water)
1 | Cc1cc[n+]2[n]1[Pt-2]13[n]4c(C)cc[n+]4[Ag-][n]4ccc(C)[n+]4[Pt-2]([n]4c(C)cc[n+]4[Ag-][n]4ccc(C)[n+]41)([n]1c(C)cc[n+]1[Ag-][n]1ccc(C)[n+]13)[n+]1c(C)cc[n]1[Ag-]2 [[Pt2Ag4(μ-3-Mepz)8]] | slightly soluble | slightly soluble | soluble | soluble | slightly soluble | – | – | – | – | –
2 | Cc1cc(C)[n+]2[n]1[Pt-2]13[n]4c(C)cc(C)[n+]4[Cu-][n]4c(C)cc(C)[n+]4[Pt-2]([n]4c(C)cc(C)[n+]4[Cu-][n]4c(C)cc(C)[n+]41)([n]1c(C)cc(C)[n+]1[Cu-][n]1c(C)cc(C)[n+]13)[n+]1c(C)cc(C)[n]1[Cu-]2 [[Pt2Cu4(μ-dmpz)8]] | poorly soluble | – | soluble | soluble | poorly soluble | slightly soluble | – | poorly soluble | slightly soluble | –
3 | CC(C)(C)c1cc[n-]n1.CC(C)(C)c1cc[n-]n1.CC(C)(C)c1cc[nH]n1.CC(C)(C)c1cc[nH]n1.[Pt+2] [[Pt(3-^tBupz)2(3-^tBupzH)2]] | – | – | readily soluble | readily soluble | – | soluble | soluble | soluble | – | –
4 | CC(C)(C)c1ccn[nH]1.CC(C)(C)c1ccn[nH]1.CC(C)(C)c1ccn[nH]1.CC(C)(C)c1ccn[nH]1.[Cl-].[Cl-].[Pt+2] [[Pt(3-^tBupzH)4]Cl2] | – | – | readily soluble | readily soluble | soluble | – | – | soluble | – | –
5 | [Cl][Pt-2]([n]1nc(-c2ccccc2)cc1-c1ccccc1)([n+]1[nH]c(-c2ccccc2)cc1-c1ccccc1)[n+]1[nH]c(-c2ccccc2)cc1-c1ccccc1 [[PtCl(dppz)(dppzH)2]] | soluble | soluble | readily soluble | readily soluble | soluble | readily soluble | – | – | – | –
6 | Cc1cc(C)[n]([Pt-2]([n]2nc(C)cc2C)([n+]2[nH]c(C)cc2C)[n+]2[nH]c(C)cc2C)n1.Cc1cc(C)[n]([Pt-2]([n]2nc(C)cc2C)([n+]2[nH]c(C)cc2C)[n+]2[nH]c(C)cc2C)n1 [[{Pt(dmpz)2(dmpzH)2}2]] | moderately soluble | highly soluble | extremely highly soluble | extremely highly soluble | highly soluble | not soluble | – | not soluble | moderately soluble | not soluble

Results, then the molecule that gave them:

Row | solubility in a solvent (acetonitrile) | solubility in a solvent (benzene) | solubility in a solvent (chloroform) | solubility in a solvent [1] | solubility in a solvent (toluene) | solubility in a solvent (acetone) | solubility in a solvent (hexane) | solubility in a solvent (methanol) | solubility in a solvent (diethyl ether) | solubility in a solvent (water) | Structure (SMILES)
7 | – | – | readily soluble | readily soluble | – | – | – | – | – | – | CC(C)(C)c1cc[n+]2[n]1[Ag-][n+]1c(C(C)(C)C)cc[n]1[Pt-2]13[n]4ccc(C(C)(C)C)[n+]4[Ag-][n]4c(C(C)(C)C)cc[n+]4[Pt-2]2([n]2ccc(C(C)(C)C)[n+]2[Ag-][n]2c(C(C)(C)C)cc[n+]21)[n]1ccc(C(C)(C)C)[n+]1[Ag-][n]1c(C(C)(C)C)cc[n+]13 [[Pt2Ag4(μ-3-^tBupz)8]]
8 | slightly soluble | soluble | readily soluble | readily soluble | soluble | – | – | – | – | – | c1ccc(-c2cc(-c3ccccc3)[n+]3[n]2[Pt-2]24[Cl+][Ag-][n]5c(-c6ccccc6)cc(-c6ccccc6)[n+]5[Pt-2]([Cl+][Ag-][n]5c(-c6ccccc6)cc(-c6ccccc6)[n+]52)([n]2c(-c5ccccc5)cc(-c5ccccc5)[n+]2[Ag-][n]2c(-c5ccccc5)cc(-c5ccccc5)[n+]24)[n+]2c(-c4ccccc4)cc(-c4ccccc4)[n]2[Ag-]3)cc1 [[Pt2Ag4(μ-Cl)2(μ-dppz)6]]
9 | moderately soluble | highly soluble | extremely highly soluble | extremely highly soluble | highly soluble | not soluble | moderately soluble | not soluble | – | – | Cc1cc(C)[n+]2[n]1[Pt-2]13[n]4c(C)cc(C)[n+]4[Ag-][n]4c(C)cc(C)[n+]4[Pt-2]([n]4c(C)cc(C)[n+]4[Ag-][n]4c(C)cc(C)[n+]41)([n]1c(C)cc(C)[n+]1[Ag-][n]1c(C)cc(C)[n+]13)[n+]1c(C)cc(C)[n]1[Ag-]2 [[Pt2Ag4(μ-dmpz)8]]
10 | – | – | soluble | soluble | – | – | – | – | – | – | CC(C)(C)c1cc[n+]2[n]1[Cu-][n+]1c(C(C)(C)C)cc[n]1[Pt-2]13[n]4ccc(C(C)(C)C)[n+]4[Cu-][n]4c(C(C)(C)C)cc[n+]4[Pt-2]2([n]2ccc(C(C)(C)C)[n+]2[Cu-][n]2c(C(C)(C)C)cc[n+]21)[n]1ccc(C(C)(C)C)[n+]1[Cu-][n]1c(C(C)(C)C)cc[n+]13 [[Pt2Cu4(μ-3-^tBupz)8]]
11 | – | soluble | readily soluble | readily soluble | soluble | – | – | – | soluble | – | Cc1ccn[n]1[Pt-2]([n]1nccc1C)([n+]1[nH]ccc1C)[n+]1[nH]ccc1C.Cc1ccn[n]1[Pt-2]([n]1nccc1C)([n+]1[nH]ccc1C)[n+]1[nH]ccc1C [[{Pt(3-Mepz)2(3-MepzH)2}2]]
